Experimental data as given in patent publication US20230123601A1, “PHARMACEUTICAL COMBINATION OF ANTIVIRAL AGENTS TARGETING HBV AND/OR AN IMMUNE MODULATOR FOR TREATMENT OF HBV” (priority 2019, published 2023).

Tested on: HBV
Assay: HBsAg levels in serum of AAV/HBV mice (CLIA)
Format: in vivo, C57BL/6 mice
Design: HBsAg levels in serum (Average ± SD): scale not given here
Source text: The AAV-HBV mouse model is generated by injecting C57BL/6 mice with recombinant adeno-associated virus harboring a replicable HBV genome (AAV-HBV). The rAAV8-1.3 HBV ayw virus stock was purchased from Beijing FivePlus Molecular Medicine Institute (Beijing, China). The animals (male, aged 4-5 weeks upon arrival) were purchased from SLAC Laboratory Animal Co. Ltd (Shanghai, China), acclimatized in the animal facility for 5-7 days, and then injected with 1×10^11 vector genome of AAV-HBV (diluted in 200 μL of PBS) through the tail vein. Persistence expression of HBV genome can be established after three weeks, with high levels of HBV viral markers including HBV DNA, HBsAg, and HBeAg in mouse serum. With stable HBV viremia and competent immune system of the C57BL/6 mice, the AAV-HBV mouse model was used to evaluate the in vivo anti-HBV efficacy of the compounds. The in-life part of the AAV-HBV study was conducted through contracted service at Covance Pharmaceutical Research and Development (Shanghai) Co. Ltd. (Covance Shanghai) and the post-life analysis using the serum was performed internally at Roche Innovation Center Shanghai (RICS).
Seven days before compound treatment, blood samples were collected for serum preparation (˜15 μL), and based on HBV DNA, HBsAg levels in serum and body weight, the AAV-HBV infected animals were stratified into the different treatment groups.
Saline (Group 01) and anti-HBV ASO of CMP ID NO: 15_1 at 1.5 or 7.5 mg/kg were dosed sub subcutaneously once a week during Day 0-49 on Days 0, 7, 14, 21, 28, 35, 42 and 49. TLR7 agonist of CMP ID NO: VI 100 mg/kg was administered by oral gavage once every other day during Day 0-55 (QOD) or once weekly during Day 0-49 on Days 0, 7, 14, 21, 28, 35, 42 and 49 (QW). The animals were weekly bled via retro-orbital sinus for sample collection throughout the study.
Serum HBsAg levels were determined in the serum of infected AAV-HBV mouse using the HBsAg chemoluminescence immunoassay (CLIA) (Autobio diagnostics Co. Ltd., Zhengzhou, China, Cat. no. CL0310-2), according to the manufacturer's protocol. Briefly, 50 μl of serum was transferred to the antibody coated microtiter plate and 50 μl of enzyme conjugate reagent was added. The plate was incubated for 60 min on a shaker at room temperature before all wells were washed six times with washing buffer using an automatic washer. 25 μl of substrate A and then 25 μl of substrate B was added to each well. The plate was incubated for 10 min at RT before luminescence was measured using an Envision luminescence reader (Perkin Elmer). HBsAg is given in the unit IU/ml; where 1 ng HBsAg=1.14 IU.
To evaluate the combination of the anti-HBV ASO and the TLR7 agonist in an in vivo system, a mouse model of chronic HBV infection was used. In the AAV/HBV mouse model described in the Materials and Method a persistent HBV infection is established resulting in expression of viral markers (HBsAg, HBeAg, HBV DNA) detectable in plasma. The effect on these viral markers upon treatment with the anti-HBV ASO of CMP ID NO: 15_1 (table 2, and FIG. 4) dosed at 1.5 mg/kg or 7.5 mg/kg and the TLR7 agonist of CMP ID NO: VI (table 3) dosed with […] every other day (QOD) or once weekly (QW) in monotherapy or in combination has been evaluated.

## CC[C@H](OC(C)=O)[C@@H]1C[C@@H](O)[C@H](n2c(=O)sc3cnc(N)nc32)O1 [CMP ID NO: VI, [(1S)-1-[(2S,4R,5R)-5-(5-amino-2-oxo-thiazolo[4,5-d]pyrimidin-3-yl)-4-hydroxy-tetrahydrofuran-2-yl]propyl] acetate]
D0, 15_1 1.5 mg/kg weekly, VI 100 mg/kg QOD, or combination of both
  HBsAg levels in serum (Average ± SD): 4.14 ± 0.37
D0, 15_1 1.5 mg/kg weekly, VI 100 mg/kg QW, or combination of both
  HBsAg levels in serum (Average ± SD): 4.07 ± 0.44
D0, 15_1 7.5 mg/kg weekly, VI 100 mg/kg QOD, or combination of both
  HBsAg levels in serum (Average ± SD): 4.14 ± 0.37
D0, 15_1 7.5 mg/kg weekly, VI 100 mg/kg QW, or combination of both
  HBsAg levels in serum (Average ± SD): 4.07 ± 0.44
D7, 15_1 1.5 mg/kg weekly, VI 100 mg/kg QOD, or combination of both
  HBsAg levels in serum (Average ± SD): 3.68 ± 1.03
D7, 15_1 1.5 mg/kg weekly, VI 100 mg/kg QW, or combination of both
  HBsAg levels in serum (Average ± SD): 3.72 ± 0.85
D7, 15_1 7.5 mg/kg weekly, VI 100 mg/kg QOD, or combination of both
  HBsAg levels in serum (Average ± SD): 3.68 ± 1.03
D7, 15_1 7.5 mg/kg weekly, VI 100 mg/kg QW, or combination of both
  HBsAg levels in serum (Average ± SD): 3.72 ± 0.85
D14, 15_1 1.5 mg/kg weekly, VI 100 mg/kg QOD, or combination of both
  HBsAg levels in serum (Average ± SD): 3.11 ± 1.35
D14, 15_1 1.5 mg/kg weekly, VI 100 mg/kg QW, or combination of both
  HBsAg levels in serum (Average ± SD): 3.52 ± 0.96
D14, 15_1 7.5 mg/kg weekly, VI 100 mg/kg QOD, or combination of both
  HBsAg levels in serum (Average ± SD): 3.11 ± 1.35
D14, 15_1 7.5 mg/kg weekly, VI 100 mg/kg QW, or combination of both
  HBsAg levels in serum (Average ± SD): 3.52 ± 0.96
D21, 15_1 1.5 mg/kg weekly, VI 100 mg/kg QOD, or combination of both
  HBsAg levels in serum (Average ± SD): 2.62 ± 1.41
D21, 15_1 1.5 mg/kg weekly, VI 100 mg/kg QW, or combination of both
  HBsAg levels in serum (Average ± SD): 3.07 ± 1.22
D21, 15_1 7.5 mg/kg weekly, VI 100 mg/kg QOD, or combination of both
  HBsAg levels in serum (Average ± SD): 2.62 ± 1.41
D21, 15_1 7.5 mg/kg weekly, VI 100 mg/kg QW, or combination of both
  HBsAg levels in serum (Average ± SD): 3.07 ± 1.22
D28, 15_1 1.5 mg/kg weekly, VI 100 mg/kg QOD, or combination of both
  HBsAg levels in serum (Average ± SD): 2.21 ± 1.28
D28, 15_1 1.5 mg/kg weekly, VI 100 mg/kg QW, or combination of both
  HBsAg levels in serum (Average ± SD): 2.65 ± 1.37
D28, 15_1 7.5 mg/kg weekly, VI 100 mg/kg QOD, or combination of both
  HBsAg levels in serum (Average ± SD): 2.21 ± 1.28
D28, 15_1 7.5 mg/kg weekly, VI 100 mg/kg QW, or combination of both
  HBsAg levels in serum (Average ± SD): 2.65 ± 1.37
D35, 15_1 1.5 mg/kg weekly, VI 100 mg/kg QOD, or combination of both
  HBsAg levels in serum (Average ± SD): 1.78 ± 1.18
D35, 15_1 1.5 mg/kg weekly, VI 100 mg/kg QW, or combination of both
  HBsAg levels in serum (Average ± SD): 2.49 ± 1.29
D35, 15_1 7.5 mg/kg weekly, VI 100 mg/kg QOD, or combination of both
  HBsAg levels in serum (Average ± SD): 1.78 ± 1.18
D35, 15_1 7.5 mg/kg weekly, VI 100 mg/kg QW, or combination of both
  HBsAg levels in serum (Average ± SD): 2.49 ± 1.29
D42, 15_1 1.5 mg/kg weekly, VI 100 mg/kg QOD, or combination of both
  HBsAg levels in serum (Average ± SD): 1.57 ± 0.97
D42, 15_1 1.5 mg/kg weekly, VI 100 mg/kg QW, or combination of both
  HBsAg levels in serum (Average ± SD): 2.28 ± 1.28
D42, 15_1 7.5 mg/kg weekly, VI 100 mg/kg QOD, or combination of both
  HBsAg levels in serum (Average ± SD): 1.57 ± 0.97
D42, 15_1 7.5 mg/kg weekly, VI 100 mg/kg QW, or combination of both
  HBsAg levels in serum (Average ± SD): 2.28 ± 1.28
D49, 15_1 1.5 mg/kg weekly, VI 100 mg/kg QOD, or combination of both
  HBsAg levels in serum (Average ± SD): 1.63 ± 0.86
D49, 15_1 1.5 mg/kg weekly, VI 100 mg/kg QW, or combination of both
  HBsAg levels in serum (Average ± SD): 1.9 ± 1.07
D49, 15_1 7.5 mg/kg weekly, VI 100 mg/kg QOD, or combination of both
  HBsAg levels in serum (Average ± SD): 1.63 ± 0.86
D49, 15_1 7.5 mg/kg weekly, VI 100 mg/kg QW, or combination of both
  HBsAg levels in serum (Average ± SD): 1.90 ± 1.07
D56, 15_1 1.5 mg/kg weekly, VI 100 mg/kg QOD, or combination of both
  HBsAg levels in serum (Average ± SD): 1.56 ± 0.77
D56, 15_1 1.5 mg/kg weekly, VI 100 mg/kg QW, or combination of both
  HBsAg levels in serum (Average ± SD): 2.13 ± 1
D56, 15_1 7.5 mg/kg weekly, VI 100 mg/kg QOD, or combination of both
  HBsAg levels in serum (Average ± SD): 1.56 ± 0.77
